According to US10131653B2, “Heterocyclic compound” (TAKEDA PHARMACEUTICAL COMPANY LIMITED, priority 2015, dated 2018):

Tests used:
[1] = molecular target: T1, human OX2 receptor (Homo sapiens, UniProt O43614); assay: Measurement of orexin receptor antagonistic activity (calcium fluorescence, FLIPRtetra); assay type: cell-based; conditions: 10 μM test compound, CHO cells expressing human OX2 receptor, OX-A 0.3 nM; for inhibition at 10 µM: CHO, read-out: Human Orexin2 receptor inhibition (at 10 μM)
T1 construct: expressed in transfected cells; host or cells: CHO cells
T1 sequence (O43614 1-444): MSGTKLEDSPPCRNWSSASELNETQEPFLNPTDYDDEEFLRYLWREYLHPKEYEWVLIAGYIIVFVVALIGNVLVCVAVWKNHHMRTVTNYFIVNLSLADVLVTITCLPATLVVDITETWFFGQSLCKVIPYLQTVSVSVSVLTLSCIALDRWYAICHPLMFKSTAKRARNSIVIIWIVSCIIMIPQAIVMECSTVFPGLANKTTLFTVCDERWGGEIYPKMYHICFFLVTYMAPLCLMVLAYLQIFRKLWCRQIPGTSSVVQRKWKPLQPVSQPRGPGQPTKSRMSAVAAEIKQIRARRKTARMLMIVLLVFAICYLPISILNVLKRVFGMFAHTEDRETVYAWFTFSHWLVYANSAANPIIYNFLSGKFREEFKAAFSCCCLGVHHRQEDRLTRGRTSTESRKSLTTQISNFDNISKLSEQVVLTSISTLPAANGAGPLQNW
How it was run: (§1)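 Calcium fluorescence measured by FLIPRtetra every second for 2 min after orexin-A challenge, 1 nM final for OX1 and 0.3 nM final for OX2. Receptor-expressing CHO cells received compound in HEPES-buffered HBSS with 0.1% BSA just before agonist.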

[2] = molecular target: T2, human OX1 receptor (Homo sapiens, UniProt O43613); assay: as above; assay type: cell-based; conditions: 10 μM test compound, CHO cells expressing human OX1 receptor, OX-A 1 nM; for inhibition at 10 µM: CHO, read-out: Human Orexin1 receptor inhibition (at 10 μM)
T2 construct: expressed in transfected cells; host or cells: CHO cells
T2 sequence (O43613 1-425): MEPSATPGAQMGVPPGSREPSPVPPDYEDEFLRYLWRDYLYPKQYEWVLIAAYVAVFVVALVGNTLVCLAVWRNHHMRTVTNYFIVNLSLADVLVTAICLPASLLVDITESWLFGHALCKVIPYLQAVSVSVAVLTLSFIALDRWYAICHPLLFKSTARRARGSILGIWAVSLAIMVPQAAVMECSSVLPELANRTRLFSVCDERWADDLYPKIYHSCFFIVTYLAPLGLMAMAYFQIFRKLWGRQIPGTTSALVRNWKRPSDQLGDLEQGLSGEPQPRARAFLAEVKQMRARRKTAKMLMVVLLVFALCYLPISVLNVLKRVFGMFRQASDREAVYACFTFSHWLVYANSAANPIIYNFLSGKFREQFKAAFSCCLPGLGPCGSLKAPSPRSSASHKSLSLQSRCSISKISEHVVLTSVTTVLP
How it was run: as §1

Row | Compound | inhibition at 10 µM [1] | inhibition at 10 µM [2] | Human Orexin2 receptor inhibition (at 10 μM) [1] | Human Orexin1 receptor inhibition (at 10 μM) [2]
1 | CC[C@@H]1CON(c2cc(C)nc(C)n2)CCN1C(=O)c1ccccc1-c1nccs1 [Example 169, ((6R)-2-(2,6-dimethylpyrimidin-4-yl)-6-ethyl-1,2,5-oxadiazepan-5-yl)(2-(1,3-thiazol-2-yl)phenyl)methanone] | 99% | 100% | – | –
2 | Cc1cc(N2CCN(C(=O)c3ccccc3-n3nccn3)[C@@H](C)CO2)nc(C)n1 [Example 170, ((6S)-2-(2,6-dimethylpyrimidin-4-yl)-6-methyl-1,2,5-oxadiazepan-5-yl)(2-(2H-1,2,3-triazol-2-yl)phenyl)methanone] | 100% | 20% | – | –
3 | Cc1cc(N2CCN(C(=O)c3ccccc3-c3nccs3)[C@@H](C)CO2)nc(C)n1 [Example 171, ((6S)-2-(2,6-dimethylpyrimidin-4-yl)-6-methyl-1,2,5-oxadiazepan-5-yl)(2-(1,3-thiazol-2-yl)phenyl)methanone] | 102% | 37% | – | –
4 | Cc1nccc(N2C[C@H](C)N(C(=O)c3ccccc3-n3nccn3)[C@H](C)CO2)n1 [Example 173, ((4S,6R)-4,6-dimethyl-2-(2-methylpyrimidin-4-yl)-1,2,5-oxadiazepan-5-yl) (2-(2H-1,2,3-triazol-2-yl)phenyl)methanone] | 103% | 103% | – | –
5 | Cc1cc(N2C[C@H](C)N(C(=O)c3ccccc3-n3nccn3)[C@H](C)CO2)ncn1 [Example 174, ((4S,6R)-4,6-dimethyl-2-(6-methylpyrimidin-4-yl)-1,2,5-oxadiazepan-5-yl) (2-(2H-1,2,3-triazol-2-yl)phenyl)methanone] | 98% | 95% | – | –
6 | C[C@@H]1CON(c2ccnc(C3CC3)n2)C[C@H](C)N1C(=O)c1ccccc1-n1nccn1 [Example 175, ((4S,6R)-2-(2-cyclopropylpyrimidin-4-yl)-4,6-dimethyl-1,2,5-oxadiazepan-5-yl) (2-(2H-1,2,3-triazol-2-yl)phenyl)methanone] | 98% | 99% | – | –
7 | Cc1nccc(N2C[C@H](C)N(C(=O)c3ccccc3-c3nccs3)[C@H](C)CO2)n1 [Example 184, ((4S,6R)-4,6-dimethyl-2-(2-methylpyrimidin-4-yl)-1,2,5-oxadiazepan-5-yl)(2-(1,3-thiazol-2-yl)phenyl)methanone] | 102% | 100% | – | –
8 | Cc1cc(N2C[C@@H](C)N(C(=O)c3ccccc3-c3nccs3)[C@@H](C)CO2)nc(C)n1 [Example 186, ((4R,6S)-2-(2,6-dimethylpyrimidin-4-yl)-4,6-dimethyl-1,2,5-oxadiazepan-5-yl)(2-(1,3-thiazol-2-yl)phenyl)methanone] | 66% | 23% | – | –
9 | Cc1cc(N2CC(C)N(C(=O)c3ccccc3-n3nccn3)CCO2)nc(C)n1 (stereo not shown) [Example 187, (2-(2,6-dimethylpyrimidin-4-yl)-4-methyl-1,2,5-oxadiazepan-5-yl)(2-(2H-1,2,3-triazol-2-yl)phenyl)methanone] | 103% | 100% | – | –
10 | Cc1cc(N2OCCN(C(=O)c3ccccc3-n3nccn3)CC2C)nc(C)n1 (stereo not shown) [Example 188, (2-(2,6-dimethylpyrimidin-4-yl)-3-methyl-1,2,5-oxadiazepan-5-yl)(2-(2H-1,2,3-triazol-2-yl)phenyl)methanone] | 29% | 13% | – | –
11 | Cc1cc(N2CC(C)N(C(=O)c3ccccc3-n3nccn3)C[C@H](C)O2)nc(C)n1 (stereo partly drawn) [Example 189, ((7S)-2-(2,6-dimethylpyrimidin-4-yl)-4,7-dimethyl-1,2,5-oxadiazepan-5-yl)(2-(2H-1,2,3-triazol-2-yl)phenyl)methanone] | 57% | 37% | – | –
12 | Cc1cc(N2C[C@H](C)N(C(=O)c3ccccc3-n3nccn3)CC(C)O2)nc(C)n1 (stereo partly drawn) [Example 190, ((4S)-2-(2,6-dimethylpyrimidin-4-yl)-4,7-dimethyl-1,2,5-oxadiazepan-5-yl)(2-(2H-1,2,3-triazol-2-yl)phenyl)methanone] | 111% | 107% | – | –
13 | Cc1cc(N2C[C@H](C)N(C(=O)c3ccccc3-n3nccn3)CC(C)O2)nc(C)n1 (stereo partly drawn) [Example 191, ((4S)-2-(2,6-dimethylpyrimidin-4-yl)-4,7-dimethyl-1,2,5-oxadiazepan-5-yl)(2-(2H-1,2,3-triazol-2-yl)phenyl)methanone] | – | – | 109% | 106%

Now from value to compound:

Row | inhibition at 10 µM [1] | inhibition at 10 µM [2] | Human Orexin2 receptor inhibition (at 10 μM) [1] | Human Orexin1 receptor inhibition (at 10 μM) [2] | Compound
14 | 100% | 103% | – | – | Cc1cc(N2C[C@H](C)N(C(=O)c3ccccc3-n3nccn3)[C@H](C)CO2)nc(C)n1 [Example 172, ((4S,6R)-2-(2,6-dimethylpyrimidin-4-yl)-4,6-dimethyl-1,2,5-oxadiazepan-5-yl)(2-(2H-1,2,3-triazol-2-yl)phenyl)methanone]
15 | 101% | 103% | – | – | Cc1ccc(-n2nccn2)c(C(=O)N2[C@H](C)CON(c3cc(C)nc(C)n3)C[C@@H]2C)c1 [Example 176, ((4S,6R)-2-(2,6-dimethylpyrimidin-4-yl)-4,6-dimethyl-1,2,5-oxadiazepan-5-yl)(5-methyl-2-(2H-1,2,3-triazol-2-yl)phenyl)methanone]
16 | 106% | 102% | – | – | Cc1ccc(-n2nccn2)c(C(=O)N2[C@H](C)CON(c3cc(C)nc(C(F)(F)F)n3)C[C@@H]2C)c1 [Example 177, ((4S,6R)-4,6-dimethyl-2-(6-methyl-2-(trifluoromethyl)pyrimidin-4-yl)-1,2,5-oxadiazepan-5-yl) (5-methyl-2-(2H-1,2,3-triazol-2-yl)phenyl)methanone]
17 | 99% | 105% | – | – | Cc1ccc(-n2nccn2)c(C(=O)N2[C@H](C)CON(c3cc(C(F)(F)F)nc(C)n3)C[C@@H]2C)c1 [Example 178, ((4S,6R)-4,6-dimethyl-2-(2-methyl-6-(trifluoromethyl)pyrimidin-4-yl)-1,2,5-oxadiazepan-5-yl) (5-methyl-2-(2H-1,2,3-triazol-2-yl)phenyl)methanone]
18 | 98% | 102% | – | – | Cc1ccc(-n2nccn2)c(C(=O)N2[C@H](C)CON(c3cc(C(F)F)nc(C)n3)C[C@@H]2C)c1 [Example 179, ((4S,6R)-2-(6-(difluoromethyl)-2-methylpyrimidin-4-yl)-4,6-dimethyl-1,2,5-oxadiazepan-5-yl) (5-methyl-2-(2H-1,2,3-triazol-2-yl)phenyl)methanone]
19 | 101% | 90% | – | – | Cc1nc(C(F)F)cc(N2C[C@H](C)N(C(=O)c3cc(F)ccc3-n3nccn3)[C@H](C)CO2)n1 [Example 180, ((4S,6R)-2-(6-(difluoromethyl)-2-methylpyrimidin-4-yl)-4,6-dimethyl-1,2,5-oxadiazepan-5-yl)(5-fluoro-2-(2H-1,2,3-triazol-2-yl)phenyl)methanone]
20 | 83% | 70% | – | – | Cc1nc(N2C[C@H](C)N(C(=O)c3cc(F)ccc3-n3nccn3)[C@H](C)CO2)cc(C(F)(F)F)n1 [Example 181, ((4S,6R)-4,6-dimethyl-2-(2-methyl-6-(trifluoromethyl)pyrimidin-4-yl)-1,2,5-oxadiazepan-5-yl)(5-fluoro-2-(2H-1,2,3-triazol-2-yl)phenyl)methanone]
21 | 98% | 100% | – | – | Cc1nc(C(F)F)cc(N2C[C@H](C)N(C(=O)c3cc(Cl)ccc3-n3nccn3)[C@H](C)CO2)n1 [Example 182, (5-chloro-2-(2H-1,2,3-triazol-2-yl)phenyl)((4S,6R)-2-(6-(difluoromethyl)-2-methylpyrimidin-4-yl)-4,6-dimethyl-1,2,5-oxadiazepan-5-yl)methanone]
22 | 103% | 105% | – | – | Cc1nc(N2C[C@H](C)N(C(=O)c3cc(Cl)ccc3-n3nccn3)[C@H](C)CO2)cc(C(F)(F)F)n1 [Example 183, (5-chloro-2-(2H-1,2,3-triazol-2-yl)phenyl)((4S,6R)-4,6-dimethyl-2-(2-methyl-6-(trifluoromethyl)pyrimidin-4-yl)-1,2,5-oxadiazepan-5-yl)methanone]
23 | 31% | 22% | – | – | Cc1cc(N2C[C@@H](C)N(C(=O)c3ccccc3-n3nccn3)[C@@H](C)CO2)nc(C)n1 [Example 185, ((4R,6S)-2-(2,6-dimethylpyrimidin-4-yl)-4,6-dimethyl-1,2,5-oxadiazepan-5-yl)(2-(2H-1,2,3-triazol-2-yl)phenyl)methanone]
